# Key:
# Vav1.5 sodium channel = target: T1, Vav1.5 sodium channel (Homo sapiens, UniProt Q14524); assay: ion channel blockade panel; assay type: cell-based; conditions: 5 μM
# T1 construct: Eurofins (contract assay)
# Description: (§1) In vitro profiling of LIT-001 was performed by Eurofins as described in the Eurofins SafetyScreen-Functional panel, 2018[31]. The hepatotoxicity of LIT-001 was studied with cryo-preserved mouse hepatocytes. After unfreezing (optiTHAW and optiINCUBATE media, Xenotech) and cell viability control, cells (2 × 10^6 cells/ml) were dispatched in 96 well microtiterplates. LIT-001 was added to reach a concentration 1 μM in the presence of 1 × 10^6 cells/mL in a volume of 100 μl/well. The incubation was stopped at 4, 20, 40, 80 and 120 min in adding 100 μl of acetonitrile at 0 °C. A positive control was treated in the same conditions. All samples were analyzed by UHPLC coupled to a mass spectrometer (Shimadzu LC-MS 8030).
# [1] = target: T2, GABAA (alpha1/beta2/gamma2) (Homo sapiens, UniProt P14867+P18507+P47870); assay: ion channel blockade panel; assay type: cell-based; conditions: 5 μM
# T2 construct: Eurofins (contract assay)
# Description: as §1
# [2] = target: T3, human hERG potassium channel (Homo sapiens, UniProt Q12809); assay: ion channel blockade panel; assay type: cell-based; conditions: 5 μM
# T3 construct: Eurofins (contract assay)
# Description: as §1
# nAChR (alpha4/beta2) = target: T4, nAChR (alpha4/beta2) (Homo sapiens, UniProt P17787+P43681); assay: ion channel blockade panel; assay type: cell-based; conditions: 5 μM
# T4 construct: Eurofins (contract assay)
# Description: as §1
# CYP 1A2 = target: T5, CYP 1A2 (Homo sapiens, UniProt P05177); assay: cytochrome inhibition, human liver microsomes; assay type: in vitro ADME
# T5 construct: phosphate buffer containing human liver microsomes (0.2 mg/ml); from tissue; host or cells: human liver microsomes
# Description: (§2) Cytochrome inhibition by LIT-001 was studied as follows. A stock solution of LIT-001 at 10 mM in DMSO was prepared and stored at 4 °C. Solutions containing the cytochrome substrates and control inhibitors or LIT-001 were prepared. 2 μl of substrate-inhibitor solutions were mixed with 176 μl of phosphate buffer containing human liver microsomes (0.2 mg/ml), 1 mM of NADPH and 3 mM of MgCl2. Height concentrations were tested: 0.03; 0.1; 0.3; 1; 3; 10; 30 and 100 μM. The reaction was initiated by addition of the co-factor after 5 min of incubation at 37 °C. After one hour of incubation, 200 μl of acetonitrile were added to stop enzymatic reactions and solubilize the products. Different control inhibitors were used and supernatants were analyzed by LC-MS/MS (UHPLC separation; Shimadzu LC-MS 8030). • Furafylline (CYP 1A2 inhibitor): 0.03; 0.1; 0.3; 1; 3; 10; 30 and 100 μM • Sulfaphenazole (CYP 2C9 inhibitor): 0.03; 0.1; 0.3; 1; 3; 10; 30 and 100 μM • Tranylcypromine (CYP 2C19 inhibitor): 0.03; 0.1; 0.3; 1; 3; 10; 30 and 100 μM • Quinidine (CYP […] inhibitor): 0.003; 0.01; 0.1; 0.5; 1; 5; 10 and 50 μM • Kétoconazole (CYP 3A4 inhibitor): 0.003; 0.01; 0.1; 0.5; 1; 5; 10 and 50 μM
# CYP 2C19 = target: T6, CYP 2C19 (Homo sapiens, UniProt P33261); assay: cytochrome inhibition, human liver microsomes; assay type: in vitro ADME
# T6 construct: phosphate buffer containing human liver microsomes (0.2 mg/ml); from tissue; host or cells: human liver microsomes
# Description: as §2
# CYP 3A4 = target: T7, CYP 3A4 (Homo sapiens, UniProt P08684); assay: cytochrome inhibition, human liver microsomes; assay type: in vitro ADME
# T7 construct: phosphate buffer containing human liver microsomes (0.2 mg/ml); from tissue; host or cells: human liver microsomes
# Description: as §2
# CYP 2C9 = target: T8, CYP 2C9 (Homo sapiens, UniProt P11712); assay: cytochrome inhibition, human liver microsomes; assay type: in vitro ADME; conditions: 0.03-100 μM
# T8 construct: phosphate buffer containing human liver microsomes (0.2 mg/ml); from tissue; host or cells: human liver microsomes
# Description: as §2
# CYP 2D6 = target: T9, CYP 2D6 (Homo sapiens, UniProt P10635); assay: cytochrome inhibition, human liver microsomes; assay type: in vitro ADME; conditions: 0.03-100 μM
# T9 construct: phosphate buffer containing human liver microsomes (0.2 mg/ml); from tissue; host or cells: human liver microsomes
# Description: as §2
# V1aR (hV1AR) = system: V1aR (hV1AR); parameters: method as in PMID 30199637; conditions: cited from earlier work
# T3 sequence (Q12809 whole entry): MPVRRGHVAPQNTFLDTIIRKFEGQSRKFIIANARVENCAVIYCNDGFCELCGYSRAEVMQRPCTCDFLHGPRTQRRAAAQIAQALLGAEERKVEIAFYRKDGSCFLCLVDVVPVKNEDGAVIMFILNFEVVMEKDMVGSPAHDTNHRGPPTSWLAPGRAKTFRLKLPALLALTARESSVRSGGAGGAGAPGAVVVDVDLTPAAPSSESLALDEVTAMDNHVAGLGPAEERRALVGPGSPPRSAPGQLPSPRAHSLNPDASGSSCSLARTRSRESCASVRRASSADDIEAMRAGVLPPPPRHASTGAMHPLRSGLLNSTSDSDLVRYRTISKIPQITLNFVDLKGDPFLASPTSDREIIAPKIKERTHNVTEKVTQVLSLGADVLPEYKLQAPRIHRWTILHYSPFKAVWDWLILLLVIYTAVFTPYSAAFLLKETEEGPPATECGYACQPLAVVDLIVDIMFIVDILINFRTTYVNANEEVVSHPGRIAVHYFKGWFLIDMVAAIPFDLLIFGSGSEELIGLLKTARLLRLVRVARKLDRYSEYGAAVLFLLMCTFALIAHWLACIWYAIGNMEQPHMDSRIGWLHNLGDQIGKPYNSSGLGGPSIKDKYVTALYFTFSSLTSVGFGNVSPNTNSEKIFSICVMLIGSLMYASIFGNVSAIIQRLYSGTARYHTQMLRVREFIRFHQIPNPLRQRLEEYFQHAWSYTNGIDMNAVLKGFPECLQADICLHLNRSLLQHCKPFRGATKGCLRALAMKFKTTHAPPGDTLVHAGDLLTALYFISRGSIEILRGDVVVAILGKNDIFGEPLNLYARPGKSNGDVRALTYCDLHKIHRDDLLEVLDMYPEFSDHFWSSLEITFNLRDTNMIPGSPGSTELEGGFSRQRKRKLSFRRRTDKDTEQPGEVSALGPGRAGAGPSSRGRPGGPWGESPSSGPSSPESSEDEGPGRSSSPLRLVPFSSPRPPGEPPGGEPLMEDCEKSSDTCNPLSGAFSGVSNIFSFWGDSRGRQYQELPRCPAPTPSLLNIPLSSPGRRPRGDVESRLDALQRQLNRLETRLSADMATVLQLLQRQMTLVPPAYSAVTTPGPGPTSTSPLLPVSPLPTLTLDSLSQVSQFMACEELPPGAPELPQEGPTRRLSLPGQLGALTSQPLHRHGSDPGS
# T1 sequence (Q14524 whole entry): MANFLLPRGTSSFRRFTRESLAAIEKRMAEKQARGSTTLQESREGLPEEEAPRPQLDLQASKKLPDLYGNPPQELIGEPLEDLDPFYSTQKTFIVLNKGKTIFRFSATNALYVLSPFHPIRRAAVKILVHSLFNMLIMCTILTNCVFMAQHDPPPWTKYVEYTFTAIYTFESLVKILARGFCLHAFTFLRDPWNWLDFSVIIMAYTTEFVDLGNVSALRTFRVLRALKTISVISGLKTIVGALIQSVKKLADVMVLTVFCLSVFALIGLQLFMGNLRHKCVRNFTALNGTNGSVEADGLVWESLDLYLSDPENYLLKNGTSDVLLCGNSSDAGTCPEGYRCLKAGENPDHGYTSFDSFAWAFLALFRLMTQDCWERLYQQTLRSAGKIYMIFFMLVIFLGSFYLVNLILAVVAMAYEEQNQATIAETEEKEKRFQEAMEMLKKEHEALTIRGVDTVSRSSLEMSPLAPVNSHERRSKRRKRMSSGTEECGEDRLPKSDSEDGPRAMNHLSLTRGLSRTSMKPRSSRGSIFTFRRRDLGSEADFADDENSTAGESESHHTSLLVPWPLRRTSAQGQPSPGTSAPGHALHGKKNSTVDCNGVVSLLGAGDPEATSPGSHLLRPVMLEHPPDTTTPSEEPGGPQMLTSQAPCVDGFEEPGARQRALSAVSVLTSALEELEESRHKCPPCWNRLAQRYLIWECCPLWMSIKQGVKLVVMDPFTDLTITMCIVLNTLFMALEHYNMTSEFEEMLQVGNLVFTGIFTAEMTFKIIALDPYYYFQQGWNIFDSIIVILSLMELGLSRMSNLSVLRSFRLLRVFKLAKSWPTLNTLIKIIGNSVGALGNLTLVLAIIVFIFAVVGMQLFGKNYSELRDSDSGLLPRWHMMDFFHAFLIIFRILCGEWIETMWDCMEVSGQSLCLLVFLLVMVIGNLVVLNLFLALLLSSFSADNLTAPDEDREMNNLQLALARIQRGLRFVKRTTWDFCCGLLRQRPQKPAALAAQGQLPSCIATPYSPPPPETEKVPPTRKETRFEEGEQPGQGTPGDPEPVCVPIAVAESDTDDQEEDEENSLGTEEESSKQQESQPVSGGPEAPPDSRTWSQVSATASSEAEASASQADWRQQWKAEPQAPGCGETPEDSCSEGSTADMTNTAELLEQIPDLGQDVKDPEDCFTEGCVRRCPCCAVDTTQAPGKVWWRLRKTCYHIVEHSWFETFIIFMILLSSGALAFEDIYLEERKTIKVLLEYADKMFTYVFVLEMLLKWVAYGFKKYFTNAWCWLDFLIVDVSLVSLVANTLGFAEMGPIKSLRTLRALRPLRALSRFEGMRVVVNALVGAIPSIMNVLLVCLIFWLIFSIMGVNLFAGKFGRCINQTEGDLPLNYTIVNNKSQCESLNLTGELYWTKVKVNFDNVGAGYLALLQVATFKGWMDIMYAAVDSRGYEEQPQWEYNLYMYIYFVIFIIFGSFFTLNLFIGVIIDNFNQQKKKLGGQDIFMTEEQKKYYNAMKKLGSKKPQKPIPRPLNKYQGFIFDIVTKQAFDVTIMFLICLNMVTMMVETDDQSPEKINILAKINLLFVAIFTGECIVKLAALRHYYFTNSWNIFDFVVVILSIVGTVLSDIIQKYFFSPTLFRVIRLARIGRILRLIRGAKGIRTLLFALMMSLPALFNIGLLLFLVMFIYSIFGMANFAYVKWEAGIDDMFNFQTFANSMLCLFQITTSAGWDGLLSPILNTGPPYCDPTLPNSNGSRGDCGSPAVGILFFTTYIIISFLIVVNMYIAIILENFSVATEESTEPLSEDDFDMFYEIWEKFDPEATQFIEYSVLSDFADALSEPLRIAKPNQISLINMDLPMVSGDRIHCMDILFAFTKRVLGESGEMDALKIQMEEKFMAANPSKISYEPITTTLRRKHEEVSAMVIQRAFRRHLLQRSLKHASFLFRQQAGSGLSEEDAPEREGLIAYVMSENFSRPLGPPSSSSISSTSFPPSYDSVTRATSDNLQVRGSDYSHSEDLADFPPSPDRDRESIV
# T2 sequence (P14867 28-456): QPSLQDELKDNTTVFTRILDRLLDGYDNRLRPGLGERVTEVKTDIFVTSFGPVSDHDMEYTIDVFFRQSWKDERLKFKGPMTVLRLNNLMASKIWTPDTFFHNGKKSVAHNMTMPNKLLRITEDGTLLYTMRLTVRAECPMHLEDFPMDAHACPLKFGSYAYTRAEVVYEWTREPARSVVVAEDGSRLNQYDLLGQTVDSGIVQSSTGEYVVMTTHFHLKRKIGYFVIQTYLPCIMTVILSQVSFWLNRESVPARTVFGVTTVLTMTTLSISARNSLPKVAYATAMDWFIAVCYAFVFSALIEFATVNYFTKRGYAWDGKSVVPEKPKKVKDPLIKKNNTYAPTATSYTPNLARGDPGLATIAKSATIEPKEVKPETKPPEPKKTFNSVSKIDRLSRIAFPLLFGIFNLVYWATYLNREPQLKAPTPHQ
# T2 sequence (P47870 25-512 limits assumed): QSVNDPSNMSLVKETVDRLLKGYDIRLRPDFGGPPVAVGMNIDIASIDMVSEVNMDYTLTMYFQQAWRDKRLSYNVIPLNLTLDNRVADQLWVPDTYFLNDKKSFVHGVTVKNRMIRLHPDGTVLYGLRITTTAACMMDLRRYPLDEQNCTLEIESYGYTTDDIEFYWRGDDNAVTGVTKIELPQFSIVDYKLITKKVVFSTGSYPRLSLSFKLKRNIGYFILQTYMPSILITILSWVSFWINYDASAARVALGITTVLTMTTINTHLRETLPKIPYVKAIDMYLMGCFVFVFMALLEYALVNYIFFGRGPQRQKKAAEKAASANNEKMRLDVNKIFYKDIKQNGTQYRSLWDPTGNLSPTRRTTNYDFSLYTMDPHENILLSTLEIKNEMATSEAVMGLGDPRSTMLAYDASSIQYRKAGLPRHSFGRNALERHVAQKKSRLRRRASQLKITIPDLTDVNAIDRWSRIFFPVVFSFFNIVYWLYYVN
# T2 sequence (P18507 40-475): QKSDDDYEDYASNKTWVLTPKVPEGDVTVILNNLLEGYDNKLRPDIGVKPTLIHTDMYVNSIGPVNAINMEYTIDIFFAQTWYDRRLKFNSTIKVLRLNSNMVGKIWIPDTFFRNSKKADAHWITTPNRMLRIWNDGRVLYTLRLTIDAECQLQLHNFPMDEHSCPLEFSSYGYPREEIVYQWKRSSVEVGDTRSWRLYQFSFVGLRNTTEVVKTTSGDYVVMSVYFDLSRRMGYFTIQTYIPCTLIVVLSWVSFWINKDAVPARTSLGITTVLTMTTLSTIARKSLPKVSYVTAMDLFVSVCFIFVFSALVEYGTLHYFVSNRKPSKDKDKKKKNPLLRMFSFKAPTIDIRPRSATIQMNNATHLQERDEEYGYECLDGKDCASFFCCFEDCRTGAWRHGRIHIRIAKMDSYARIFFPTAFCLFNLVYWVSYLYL
# T9 sequence (P10635 whole entry): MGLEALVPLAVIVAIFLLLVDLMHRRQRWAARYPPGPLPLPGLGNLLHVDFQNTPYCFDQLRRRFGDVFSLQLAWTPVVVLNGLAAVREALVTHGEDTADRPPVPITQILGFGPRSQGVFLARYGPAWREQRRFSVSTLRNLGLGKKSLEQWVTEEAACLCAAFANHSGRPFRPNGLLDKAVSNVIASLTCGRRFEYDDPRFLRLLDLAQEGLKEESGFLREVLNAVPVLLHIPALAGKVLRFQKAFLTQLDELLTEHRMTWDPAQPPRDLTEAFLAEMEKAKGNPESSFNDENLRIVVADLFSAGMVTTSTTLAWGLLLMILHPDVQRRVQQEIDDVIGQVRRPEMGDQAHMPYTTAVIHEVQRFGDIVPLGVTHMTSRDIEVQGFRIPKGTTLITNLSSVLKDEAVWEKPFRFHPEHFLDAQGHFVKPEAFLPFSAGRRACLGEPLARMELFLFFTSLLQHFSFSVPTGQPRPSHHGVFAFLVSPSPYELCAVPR
structure (smiles),measurement,setting,value
Cc1cc(C(=O)N2Cc3cnn(C)c3Nc3ccccc32)ccc1CNC(=O)N1CCC[C@H]1C(=S)N(C)C [LIT-001],Vav1.5 sodium channel blockade,Vav1.5 sodium channel,no significant blockade activity
same,GABAA (alpha1/beta2/gamma2) channel blockade,[1],no significant blockade activity
same,hERG potassium channel blockade,[2],no significant blockade activity
same,nAChR (alpha4/beta2) channel blockade,nAChR (alpha4/beta2),no significant blockade activity
same,IC50,CYP 1A2,51 µM
same,IC50,CYP 2C19,21 µM
same,IC50,CYP 3A4,11 µM
same,interaction with CYP 2C9,CYP 2C9,did not interact
same,interaction with CYP 2D6,CYP 2D6,did not interact
same,EC50 (hV1AR),V1aR (hV1AR); agonist mode,non significant
same,IC50,"V1aR (hV1AR); antagonist mode, read-out: IC50, antagonism of vasopressin induced calcium release on V1aR",5.9 µM

# From paper PMC7033278, “A Nonpeptide Oxytocin Receptor Agonist for a Durable Relief of Inflammatory Pain” (Scientific Reports, 2020)
